Results taken from ChEMBL document CHEMBL1201862, “PubChem BioAssay data set” (2004).
Values belong to the compound of their own block, whether it stands above or below them. Activity calls are given as the source filed them.

Experiments:
[1] = target: T1, Oxysterols receptor LXR-beta (Homo sapiens, UniProt P55055); type: functional, cell-based;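 further: agonist activity at LXR measured by a cell-based luminescence readout across a dose range, run as a counterscreen for daf-12 agonists; HEK293 cells with Gal4-LXR fusion and GAL4-driven luciferase reporter; potency for activation of Gal4-LXR reporter so compounds are agonists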
T1 sequence (P55055 whole entry): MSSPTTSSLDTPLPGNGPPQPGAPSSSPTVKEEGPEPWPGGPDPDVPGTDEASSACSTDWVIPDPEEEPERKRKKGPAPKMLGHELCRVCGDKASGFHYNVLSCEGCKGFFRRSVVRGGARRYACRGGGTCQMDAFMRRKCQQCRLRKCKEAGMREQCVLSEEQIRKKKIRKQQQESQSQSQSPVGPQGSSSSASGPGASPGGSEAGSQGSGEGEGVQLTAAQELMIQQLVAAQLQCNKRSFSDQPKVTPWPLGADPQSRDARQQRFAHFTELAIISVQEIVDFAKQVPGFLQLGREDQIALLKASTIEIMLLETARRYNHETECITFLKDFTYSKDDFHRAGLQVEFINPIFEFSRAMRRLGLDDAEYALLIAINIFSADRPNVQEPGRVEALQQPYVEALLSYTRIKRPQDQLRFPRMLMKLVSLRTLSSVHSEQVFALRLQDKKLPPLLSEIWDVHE

[2] = target: Low molecular weight phosphotyrosine protein phosphatase (Homo sapiens, UniProt P24666); type: functional; conditions: read-out: IC50_Mean;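 further: Dose-response confirmation assay measuring inhibition of LMPTP enzyme activity by fluorescence intensity read-out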
fMet-Leu-Phe receptor = fMet-Leu-Phe receptor (Homo sapiens, UniProt P21462); assay: formyl peptide receptor binders – dose response (AID 519); type: functional
[3] = target: T2, Methionyl-tRNA synthetase, putative (Trypanosoma brucei brucei, UniProt Q38C91); type: functional, Trypanosoma brucei brucei strain 927/4 GUTat10.1
T2 sequence (Q38C91 whole entry): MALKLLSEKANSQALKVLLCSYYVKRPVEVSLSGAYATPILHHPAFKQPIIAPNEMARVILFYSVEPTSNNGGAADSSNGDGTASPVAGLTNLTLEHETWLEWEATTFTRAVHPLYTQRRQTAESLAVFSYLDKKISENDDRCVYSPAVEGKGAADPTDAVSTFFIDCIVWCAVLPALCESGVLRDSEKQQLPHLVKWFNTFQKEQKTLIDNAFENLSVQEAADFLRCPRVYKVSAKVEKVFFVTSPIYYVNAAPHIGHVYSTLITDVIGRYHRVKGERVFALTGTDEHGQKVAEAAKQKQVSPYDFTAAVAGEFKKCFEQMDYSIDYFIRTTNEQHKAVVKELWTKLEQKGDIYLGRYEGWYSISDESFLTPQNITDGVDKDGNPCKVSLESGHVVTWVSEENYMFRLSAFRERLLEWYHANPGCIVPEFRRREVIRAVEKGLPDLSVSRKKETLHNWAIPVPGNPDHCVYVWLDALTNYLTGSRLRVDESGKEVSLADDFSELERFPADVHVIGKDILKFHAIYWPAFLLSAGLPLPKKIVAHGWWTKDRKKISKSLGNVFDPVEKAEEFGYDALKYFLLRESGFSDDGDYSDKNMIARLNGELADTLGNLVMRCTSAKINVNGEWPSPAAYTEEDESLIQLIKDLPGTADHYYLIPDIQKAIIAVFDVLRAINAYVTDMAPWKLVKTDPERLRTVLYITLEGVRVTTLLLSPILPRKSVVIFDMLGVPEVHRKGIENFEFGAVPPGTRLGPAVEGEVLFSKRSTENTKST

[4] = Counterscreen for inhibitors of Trypanosoma brucei methionyl tRNA synthetase (MetRS): Luminescence-based cell-based high throughput dose response assay to identify compounds that are cytotoxic to Jurkat human T lymphocyte cells.; type: functional
[5] = target: T2, Methionyl-tRNA synthetase, putative; type: functional, Trypanosoma brucei brucei strain 927/4 GUTat10.1; remark: listed apart in the source
[6] = target: T3, Corticotropin-releasing factor receptor 2/Corticotropin-releasing factor-binding protein (Homo sapiens, UniProt P24387+Q13324); assay: Dose Response confirmation of uHTS hits for small molecule antagonists of the CRF-binding protein and CRF-R2 receptor complex.; type: functional; conditions: read-out: IC50_Mean
T3 sequence (Q13324 whole entry): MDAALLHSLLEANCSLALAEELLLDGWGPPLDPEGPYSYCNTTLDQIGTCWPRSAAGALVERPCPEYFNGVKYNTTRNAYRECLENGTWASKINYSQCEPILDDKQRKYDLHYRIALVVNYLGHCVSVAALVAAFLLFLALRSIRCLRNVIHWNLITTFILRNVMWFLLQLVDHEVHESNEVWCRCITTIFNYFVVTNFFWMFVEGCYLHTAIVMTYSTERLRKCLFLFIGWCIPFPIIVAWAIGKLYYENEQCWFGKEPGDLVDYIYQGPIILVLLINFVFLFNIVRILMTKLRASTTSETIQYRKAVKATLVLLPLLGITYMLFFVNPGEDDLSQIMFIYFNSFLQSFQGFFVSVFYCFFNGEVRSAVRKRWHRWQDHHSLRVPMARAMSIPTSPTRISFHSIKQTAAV
T3 sequence (P24387 whole entry): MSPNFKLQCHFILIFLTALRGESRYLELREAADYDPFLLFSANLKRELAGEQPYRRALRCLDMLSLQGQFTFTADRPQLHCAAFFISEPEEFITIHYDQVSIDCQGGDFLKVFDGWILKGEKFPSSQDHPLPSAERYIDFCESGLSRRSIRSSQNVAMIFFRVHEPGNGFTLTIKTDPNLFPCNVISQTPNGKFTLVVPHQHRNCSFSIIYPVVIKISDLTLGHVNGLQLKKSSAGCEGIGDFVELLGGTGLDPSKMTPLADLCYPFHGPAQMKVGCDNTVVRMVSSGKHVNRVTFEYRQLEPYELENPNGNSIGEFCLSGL

Cytochrome P450 2C9 = Cytochrome P450 2C9 (Homo sapiens, UniProt P11712)
[7] = blockers of CRF-binding protein–CRF-R2 complex – cell-based, uHTS hits, 384-well, dose response (AID 651639); type: functional, Homo sapiens; conditions: read-out: IC50_Mean
[8] = target: T3, Corticotropin-releasing factor receptor 2/Corticotropin-releasing factor-binding protein; assay: activators of CRF receptor 2 with binding protein – uHTS hits, confirmation (AID 602473); type: functional; conditions: read-out: EC50_Mean
CAAX prenyl protease 2 = target: T4, CAAX prenyl protease 2 (Homo sapiens, UniProt Q9Y256); assay: inhibition of Ras-converting CAAX protease Rce1 – biochemical, yeast membranes, quenched-peptide fluorescence, cherry-pick, dose response (AID 588849)
T4 sequence (Q9Y256 whole entry): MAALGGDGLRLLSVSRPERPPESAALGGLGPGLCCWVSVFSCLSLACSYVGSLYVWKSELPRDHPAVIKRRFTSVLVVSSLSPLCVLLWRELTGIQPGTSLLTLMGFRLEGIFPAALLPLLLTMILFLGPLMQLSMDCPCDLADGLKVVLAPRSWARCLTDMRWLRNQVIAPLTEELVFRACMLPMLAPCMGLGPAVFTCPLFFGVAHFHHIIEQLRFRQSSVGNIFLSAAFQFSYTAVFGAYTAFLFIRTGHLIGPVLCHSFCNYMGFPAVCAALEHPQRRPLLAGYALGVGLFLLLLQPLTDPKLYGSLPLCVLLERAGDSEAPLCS

[9] = target: T5, Ubiquitin-conjugating enzyme E2 N (Homo sapiens, UniProt P61088); type: functional
T5 sequence (P61088 whole entry): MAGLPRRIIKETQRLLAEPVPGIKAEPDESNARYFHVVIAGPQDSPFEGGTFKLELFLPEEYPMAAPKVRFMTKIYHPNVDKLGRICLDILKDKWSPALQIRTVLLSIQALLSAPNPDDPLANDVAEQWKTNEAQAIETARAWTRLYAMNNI

Bcl-2-related protein A1 = target: T6, Bcl-2-related protein A1 (Mus musculus, UniProt Q07440); type: functional;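 further: confirmatory dose–response counterscreen on Bfl-1, used to check hits from a UBC13 polyubiquitin inhibitor campaign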
T6 sequence (Q07440 whole entry): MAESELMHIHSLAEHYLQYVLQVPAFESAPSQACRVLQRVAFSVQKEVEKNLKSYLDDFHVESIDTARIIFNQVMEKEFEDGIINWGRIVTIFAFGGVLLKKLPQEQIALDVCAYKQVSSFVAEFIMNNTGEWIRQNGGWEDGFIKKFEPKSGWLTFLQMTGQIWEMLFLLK

[10] = target: DNA repair protein RAD52 homolog (Homo sapiens, UniProt P43351); type: functional, biochemical
[11] = target: T5, Ubiquitin-conjugating enzyme E2 N; type: functional; remark: listed apart in the source
Beta-galactosidase = Beta-galactosidase (Escherichia coli, UniProt Q8VNN2); assay: Dose response counterscreen for EBI2 assay utilizing the enzyme, b-galactosidase.; type: functional
[12] = target: Disintegrin and metalloproteinase domain-containing protein 17 (Homo sapiens, UniProt P78536); assay: exosite inhibitors of ADAM17, dose response, biochemical (AID 743260)
[13] = inhibition of ADAM10 peptide cleavage – biochemical, FRET peptide substrate, recombinant human ADAM10, selectivity assay for ADAM17 exosite inhibitor project, dose response (AID 743259);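 further: ADAM10 enzyme cleaving a FRET peptide substrate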
[14] = cAMP pathway inhibition in counterscreen cell line – TR-FRET cAMP detection, counter-screen for MC4R biased antagonist project, dose response (AID 602305); type: functional, cell-based;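 further: U2OS cells stimulated with forskolin near its EC80 as the cAMP inducer; potency is for inhibition of forskolin-stimulated cAMP signaling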
[15] = A549 cell cytotoxicity, dose response, cytotoxicity control, plate reader, cherry-pick, antagonist series (AID 743412); type: functional, cell-based
[16] = Luminescence Cell-Based Dose Retest to Confirm Inhibitors of Cancer Stem Cells. [Related pubchem assays (depositor defined):AID2717, AID2721]; type: functional; conditions: Homo sapiens
Melanocortin receptor 4 [17] = target: T7, Melanocortin receptor 4 (Homo sapiens, UniProt P32245); type: functional, cell-based;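 further: Cell-based assay with luminescence read-out, confirmatory dose-response testing for agonist activity of biased ligands at MC4R; human U2OS cells with tagged receptor and beta-arrestin; potency of agonists that increase receptor coupling to beta-arrestin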
Melanocortin receptor 4 [18] = target: T7, Melanocortin receptor 4; assay: inhibitors of MC4R cAMP signaling – cell-based, TR-FRET, biased antagonists, dose response (AID 602298); type: functional;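 further: antagonist potency against agonist-stimulated cAMP production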
[19] = blockade of melanocortin 4 receptor signaling – cell-based, plate reader, cherry pick, counter-screen for LGR2 antagonist project, dose response (AID 743444); type: functional;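 further: transfected HEK 293 cells stimulated with alpha-MSH peptide; potency of inhibitors of the alpha-MSH evoked signal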
[20] = blockers of bursicon-stimulated LGR2 cAMP reporter – cell-based, HEK293, CRE-luciferase reporter, cherry pick, set 2, dose response (AID 743343); type: functional;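 further: transfected cells were stimulated with diluted bursicon conditioned medium after compound addition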
[21] = viability loss in HEK293 cells – cell-based, plate reader, cherry-picked samples, cytotoxicity control, dose response (AID 743446); type: functional

T7 sequence (P32245 whole entry): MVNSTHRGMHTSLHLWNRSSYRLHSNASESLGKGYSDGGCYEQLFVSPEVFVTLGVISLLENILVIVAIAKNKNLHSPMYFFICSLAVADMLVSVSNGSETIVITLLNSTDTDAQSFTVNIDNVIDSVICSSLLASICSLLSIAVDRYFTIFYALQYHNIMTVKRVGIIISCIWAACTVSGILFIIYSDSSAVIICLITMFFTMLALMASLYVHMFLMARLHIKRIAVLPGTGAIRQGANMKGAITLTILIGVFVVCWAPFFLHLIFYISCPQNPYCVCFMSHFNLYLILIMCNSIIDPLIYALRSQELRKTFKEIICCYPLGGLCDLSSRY
Disintegrin and metalloproteinase domain-containing protein 17, sequence (P78536 whole entry, the tested form may be a part): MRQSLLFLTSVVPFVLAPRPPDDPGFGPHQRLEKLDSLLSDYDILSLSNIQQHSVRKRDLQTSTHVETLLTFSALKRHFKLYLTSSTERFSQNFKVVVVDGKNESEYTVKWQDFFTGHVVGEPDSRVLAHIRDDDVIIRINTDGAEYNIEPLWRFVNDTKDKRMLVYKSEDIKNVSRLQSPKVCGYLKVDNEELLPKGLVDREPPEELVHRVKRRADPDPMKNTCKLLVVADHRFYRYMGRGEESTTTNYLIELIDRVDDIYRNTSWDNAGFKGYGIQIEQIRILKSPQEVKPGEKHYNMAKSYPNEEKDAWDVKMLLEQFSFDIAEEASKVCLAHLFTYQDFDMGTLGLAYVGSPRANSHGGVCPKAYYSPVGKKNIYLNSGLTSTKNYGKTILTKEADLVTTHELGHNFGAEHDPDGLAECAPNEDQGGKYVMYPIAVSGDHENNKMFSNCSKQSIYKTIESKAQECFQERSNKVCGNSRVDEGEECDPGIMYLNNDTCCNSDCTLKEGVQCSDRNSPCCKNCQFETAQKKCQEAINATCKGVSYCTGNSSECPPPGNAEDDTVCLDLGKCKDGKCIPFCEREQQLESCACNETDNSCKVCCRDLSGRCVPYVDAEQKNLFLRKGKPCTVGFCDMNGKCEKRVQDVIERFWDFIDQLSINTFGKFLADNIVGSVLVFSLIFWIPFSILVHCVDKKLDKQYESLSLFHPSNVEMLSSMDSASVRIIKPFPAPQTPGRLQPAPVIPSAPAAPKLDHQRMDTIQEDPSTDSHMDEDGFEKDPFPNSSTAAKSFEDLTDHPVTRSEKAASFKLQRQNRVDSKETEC
Beta-galactosidase, sequence (Q8VNN2 whole entry, the tested form may be a part): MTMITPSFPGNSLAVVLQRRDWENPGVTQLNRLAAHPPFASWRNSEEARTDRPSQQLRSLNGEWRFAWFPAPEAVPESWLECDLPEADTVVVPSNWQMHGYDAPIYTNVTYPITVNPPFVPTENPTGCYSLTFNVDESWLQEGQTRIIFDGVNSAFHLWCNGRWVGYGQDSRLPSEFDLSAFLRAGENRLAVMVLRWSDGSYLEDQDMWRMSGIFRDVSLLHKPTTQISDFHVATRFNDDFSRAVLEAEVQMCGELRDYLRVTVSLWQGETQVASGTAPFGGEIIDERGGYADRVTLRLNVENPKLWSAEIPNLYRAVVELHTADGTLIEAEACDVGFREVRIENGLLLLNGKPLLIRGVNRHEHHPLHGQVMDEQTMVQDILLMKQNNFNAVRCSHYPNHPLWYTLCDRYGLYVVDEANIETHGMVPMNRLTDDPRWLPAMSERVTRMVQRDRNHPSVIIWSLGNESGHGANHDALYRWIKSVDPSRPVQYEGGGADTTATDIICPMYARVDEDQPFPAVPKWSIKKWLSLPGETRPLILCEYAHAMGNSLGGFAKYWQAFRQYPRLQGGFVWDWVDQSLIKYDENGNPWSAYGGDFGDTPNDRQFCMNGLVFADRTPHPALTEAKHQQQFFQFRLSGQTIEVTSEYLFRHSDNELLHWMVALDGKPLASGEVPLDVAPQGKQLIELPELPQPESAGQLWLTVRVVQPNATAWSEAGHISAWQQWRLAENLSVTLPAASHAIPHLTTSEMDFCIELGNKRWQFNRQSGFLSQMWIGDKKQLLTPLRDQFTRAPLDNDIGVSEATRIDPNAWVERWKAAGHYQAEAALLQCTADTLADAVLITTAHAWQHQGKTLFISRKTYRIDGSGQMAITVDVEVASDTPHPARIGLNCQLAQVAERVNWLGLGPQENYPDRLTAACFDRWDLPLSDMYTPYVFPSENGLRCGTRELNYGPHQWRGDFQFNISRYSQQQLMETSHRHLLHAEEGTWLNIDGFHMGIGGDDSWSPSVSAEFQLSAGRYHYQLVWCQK
Low molecular weight phosphotyrosine protein phosphatase, sequence (P24666 whole entry): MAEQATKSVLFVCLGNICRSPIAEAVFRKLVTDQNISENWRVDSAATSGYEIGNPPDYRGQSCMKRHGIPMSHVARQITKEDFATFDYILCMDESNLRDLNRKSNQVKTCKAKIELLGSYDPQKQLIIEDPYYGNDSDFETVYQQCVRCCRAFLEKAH
fMet-Leu-Phe receptor, sequence (P21462 whole entry): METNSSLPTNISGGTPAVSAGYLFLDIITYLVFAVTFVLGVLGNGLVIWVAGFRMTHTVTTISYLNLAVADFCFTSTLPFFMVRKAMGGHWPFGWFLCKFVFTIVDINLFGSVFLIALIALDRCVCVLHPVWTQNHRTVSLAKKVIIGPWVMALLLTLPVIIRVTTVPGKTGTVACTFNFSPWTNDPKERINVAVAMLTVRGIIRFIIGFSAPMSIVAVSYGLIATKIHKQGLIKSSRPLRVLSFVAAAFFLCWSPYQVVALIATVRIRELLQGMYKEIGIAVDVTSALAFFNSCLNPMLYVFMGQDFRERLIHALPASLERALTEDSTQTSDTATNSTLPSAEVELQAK
DNA repair protein RAD52 homolog, sequence (P43351 whole entry): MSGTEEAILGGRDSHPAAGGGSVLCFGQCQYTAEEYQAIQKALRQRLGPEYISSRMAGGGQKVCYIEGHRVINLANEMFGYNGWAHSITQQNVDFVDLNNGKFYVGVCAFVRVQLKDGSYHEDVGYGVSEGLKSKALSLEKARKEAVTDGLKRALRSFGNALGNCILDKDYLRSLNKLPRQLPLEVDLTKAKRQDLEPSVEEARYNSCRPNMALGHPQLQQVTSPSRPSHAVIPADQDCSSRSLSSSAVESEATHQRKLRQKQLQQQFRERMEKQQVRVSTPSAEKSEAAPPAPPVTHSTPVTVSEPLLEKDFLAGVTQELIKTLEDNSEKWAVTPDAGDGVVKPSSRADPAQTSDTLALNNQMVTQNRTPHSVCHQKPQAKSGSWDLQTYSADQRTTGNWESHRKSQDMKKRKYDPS
Cytochrome P450 2C9, sequence (P11712 whole entry): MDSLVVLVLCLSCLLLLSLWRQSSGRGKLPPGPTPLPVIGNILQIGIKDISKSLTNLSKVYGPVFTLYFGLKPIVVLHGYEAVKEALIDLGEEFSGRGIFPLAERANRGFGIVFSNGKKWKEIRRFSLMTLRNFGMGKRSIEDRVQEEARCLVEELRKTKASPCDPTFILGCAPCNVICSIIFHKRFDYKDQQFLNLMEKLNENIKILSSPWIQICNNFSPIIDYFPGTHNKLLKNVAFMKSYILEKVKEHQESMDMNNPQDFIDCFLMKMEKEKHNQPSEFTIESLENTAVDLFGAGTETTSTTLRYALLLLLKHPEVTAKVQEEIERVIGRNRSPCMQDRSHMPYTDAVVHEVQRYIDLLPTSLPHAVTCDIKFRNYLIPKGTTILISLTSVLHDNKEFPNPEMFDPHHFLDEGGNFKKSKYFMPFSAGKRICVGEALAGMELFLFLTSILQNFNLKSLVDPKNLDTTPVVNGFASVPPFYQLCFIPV

SMILES: CCS(=O)(=O)Nc1cc(-c2nc3cccnc3s2)ccc1C
EC50 [1]: > 67.5 µM (inactive)

SMILES: C#Cc1ccc([C@@H]2C=C(C(=O)NCc3nc4ccccc4[nH]3)O[C@H](OCC)[C@H]2CCCO)cc1
IC50 [3]: 22.3 µM (inactive)
IC50 [4]: 35.8 µM (inactive)
IC50 [5]: 8.94 µM (active)

SMILES: CSc1nnc(-c2sc(-c3ccccc3)nc2C)n1C
IC50 [6]: < 0.368 µM (active)
AC50 (Cytochrome P450 2C9): 0.0708 µM (inconclusive)
IC50 [7]: > 20 µM (inactive)
EC50 [8]: > 53 µM (inactive)
AC50 (CAAX prenyl protease 2): > 100 µM (inactive)

SMILES: O=C(/C=C/c1ccccc1)N1CCN(c2ccccn2)CC1
IC50 (Beta-galactosidase): > 80 µM (inactive)

SMILES: O=C(SCC(O)C(O)CS)c1cccs1 (stereo unspecified)
IC50 [12]: 3.76 µM (active)
IC50 [13]: 40.5 µM (inactive)

SMILES: CCCCNc1c(-c2cccc(-c3cc(C(C)=O)cs3)c2)nc2ccc(C)cn12
IC50 [14]: > 64.6 µM (inactive)
AC50 [15]: > 52 µM (inactive)
AC50 [16]: 4.47 µM (active)
EC50 (Melanocortin receptor 4 [17]): > 89.2 µM (inactive)
IC50 (Melanocortin receptor 4 [18]): > 64.6 µM (inactive)
AC50 [19]: 14.5 µM (active)
AC50 [20]: 11.4 µM (active)
AC50 [21]: > 52 µM (inactive)

The next lines start with the values.

IC50 [2]: 12.7 µM (active)
SMILES: O=C(COC(=O)c1ccc(Br)o1)Nc1nc2c(F)c(F)c(F)cc2s1

Ki (fMet-Leu-Phe receptor): 14.7 µM (active)
SMILES: COCCCN1C(=O)C(O)=C(C(=O)c2ccco2)C1c1ccc(Br)cc1 (stereo unspecified)

IC50 [9]: > 20 µM (inactive)
IC50 (Bcl-2-related protein A1): > 20 µM (inactive)
AC50 [10]: 19.2 µM (active)
IC50 [11]: 19.4 µM (active)
SMILES: Cc1ccc(C(=O)NCCN2C3=NC[C@@H](Cc4ccccc4)N3C[C@H]2Cc2ccc(O)cc2)cc1Br
